The text below walks through data of patent publication US7964607B2, “Pyrazolo[3,4-d]pyrimidine compounds” (Pfizer Inc., priority 2007, dated 2011).

T1 sequence (O76083 whole entry): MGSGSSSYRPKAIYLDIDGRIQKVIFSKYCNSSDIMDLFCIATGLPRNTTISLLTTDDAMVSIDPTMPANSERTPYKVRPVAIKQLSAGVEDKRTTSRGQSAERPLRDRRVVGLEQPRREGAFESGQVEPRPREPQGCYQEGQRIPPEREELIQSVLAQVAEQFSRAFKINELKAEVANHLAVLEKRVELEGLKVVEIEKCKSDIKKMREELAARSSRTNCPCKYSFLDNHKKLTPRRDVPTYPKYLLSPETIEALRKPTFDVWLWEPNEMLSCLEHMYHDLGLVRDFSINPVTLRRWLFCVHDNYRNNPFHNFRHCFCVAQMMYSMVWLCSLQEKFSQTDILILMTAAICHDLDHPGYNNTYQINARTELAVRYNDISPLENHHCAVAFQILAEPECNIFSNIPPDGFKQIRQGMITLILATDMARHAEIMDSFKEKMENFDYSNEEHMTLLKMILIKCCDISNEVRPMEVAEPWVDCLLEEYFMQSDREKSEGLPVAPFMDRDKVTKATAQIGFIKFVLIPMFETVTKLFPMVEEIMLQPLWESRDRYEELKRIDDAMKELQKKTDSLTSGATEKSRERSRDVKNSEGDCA

One test concerns the target T1, human recombinant PDE9 enzyme (Homo sapiens, UniProt O76083).
T1 construct: made in house; host or cells: SF-9 insect cells
The test is described as follows: Phosphodiesterase 9 (PDE9) inhibitory activity, Scintillation Proximity (SPA) assay. It counts as biochemical.
Settings: not given
On the procedure: Phosphodiesterase 9 (PDE9) Inhibitory Activity The PDE9 assay was performed using the Phosphodiesterase Scintillation Proximity (SPA) assay (GE Healthcare Life Sciences). […] The human recombinant PDE9 enzyme was generated in SF-9 cells, the cell pellets were sonicated in buffer (20 mM TRIS, 2 mM benzamidine, 1 mM EDTA, 250 mM sucrose, 100 μM PMSF, pH 7.5 with HCl), centrifuged at 40,000×g for 20 min at 4° C. The supernatants were stored at −80° C. […] Test compounds were dissolved in DMSO, diluted in DI H2O and serially diluted in 20% DMSO/80% H2O, for a final concentration of 2% DMSO. For the assay the PDE9 was diluted with assay buffer such that 20% or less of the substrate was hydrolyzed to 5′GMP. Each assay well contained 10 μl of test compound or solvent, 40 μl of [^3H]CGMP and 50 μl of enzyme, background was determined by a high concentration of a PDE inhibitor. The assay was initiated with the addition of the enzyme and carried out at room temperature for 30 min. […] The plates were sealed, vortexed, allowed to set for >300 min, then counted in a Wallac TriLux MicroBeta LSC.
`COc1ccc(CN2C[C@@H](C)[C@H](c3nc4c(cnn4C4CCOCC4)c(=O)[nH]3)C2)cc1` [Example 101, 6-[(3S,4S)-1-(4-methoxybenzyl)-4-methylpyrrolidin-3-yl]-1-(tetrahydro-2H-pyran-4-yl)-1,5-dihydro-4H-pyrazolo[3,4-d]pyrimidin-4-one]: the IC50 came out at 7.94 nM. As to `C[C@@H]1CN(Cc2ccccc2)C[C@H]1c1nc2c(cnn2C2CCOCC2)c(=O)[nH]1` (racemic) [Example 60, 6-[(3,4-trans)-1-benzyl-4-methylpyrrolidin-3-yl]-1-(tetrahydro-2H-pyran-4-yl)-1,5-dihydro-4H-pyrazolo[3,4-d]pyrimidin-4-one], the IC50 is 44.8 nM. Take `C[C@@H]1CN(Cc2ccc(F)cc2)C[C@H]1c1nc2c(cnn2C2CCOCC2)c(=O)[nH]1` [Example 96, 6-[(3S,4S)-1-(4-fluorobenzyl)-4-methylpyrrolidin-3-yl]-1-(tetrahydro-2H-pyran-4-yl)-1,5-dihydro-4H-pyrazolo[3,4-d]pyrimidin-4-one]: the IC50 was 7.13 nM. Turning to `CC[C@@H]1CN(Cc2ccccc2)C[C@H]1c1nc2c(cnn2C2CCOCC2)c(=O)[nH]1` [97(b), 6-[(3S,4S)-1-benzyl-4-ethylpyrrolidin-3-yl]-1-(tetrahydro-2H-pyran-4-yl)-1,5-pyrazolo[3,4-d]pyrimidin-4-one], the IC50 came out at 5.56 nM.

The same test, now with this note: human recombinant PDE9 from SF-9 cells; 50 nM [3H]cGMP; room temperature, 30 min; Examples 3-114; read-out: G5678A (U): IC50.
For `C[C@@H]1CN(Cc2ccccc2)C[C@H]1c1nc2c(cnn2CC(F)(F)F)c(=O)[nH]1` (relative stereo) [Example 64], the IC50 was 873 nM.

For `C[C@@H]1CN(Cc2ccccc2C(F)(F)F)C[C@H]1c1nc2c(cnn2C2CCOCC2)c(=O)[nH]1` [Example 99, 6-{(3S,4S)-4-methyl-1-[2-(trifluoromethyl)benzyl]pyrrolidin-3-yl}-1-(tetrahydro-2H-pyran-4-yl)-1,5-dihydro-4H-pyrazolo[3,4-d]pyrimidin-4-one], the IC50 turned out to be 12.8 nM. For `CC[C@@H]1CN(Cc2ccccc2)C[C@H]1c1nc2c(cnn2C(C)C)c(=O)[nH]1` [Example 40, 6-[(3S,4S)-1-benzyl-4-ethylpyrrolidin-3-yl]-1-isopropyl-1,5-dihydro-4H-pyrazolo[3,4-d]pyrimidin-4-one], the IC50 was determined as 44.5 nM. Same read-out and setting: the result for `CC[C@@H]1CN(Cc2cnc(C)nc2)C[C@H]1c1nc2c(cnn2C2CCOCC2)c(=O)[nH]1` (racemic) [Example 74] reads 6.14 nM; that for `C[C@@H]1CN(Cc2ccc3nccnc3c2)C[C@H]1c1nc2c(cnn2C2CCCC2)c(=O)[nH]1` [Example 23, 1-cyclopentyl-6-[(3S,4S)-4-methyl-1-(quinoxalin-6-ylmethyl)pyrrolidin-3-yl]-1,5-dihydro-4H-pyrazolo[3,4-d]pyrimidin-4-one], 1.32 nM. On the same count and under the same terms, then `CC[C@@H]1CN(Cc2ccc(OC)nc2)C[C@H]1c1nc2c(cnn2C2CCOCC2)c(=O)[nH]1` [Example 108, 6-{(3S,4S)-4-ethyl-1-[(6-methoxypyridin-3-yl)methyl]pyrrolidin-3-yl}-1-(tetrahydro-2H-pyran-4-yl)-1,5-dihydro-4H-pyrazolo[3,4-d]pyrimidin-4-one], with 3.11 nM; and `Cc1nn(C2CCCC2)c2nc([C@@H]3CN(Cc4ccccc4)C[C@H]3C)[nH]c(=O)c12` (racemic) [Example 22, 6-[(3,4-trans)-1-benzyl-4-methylpyrrolidin-3-yl]-1-cyclopentyl-3-methyl-1,5-dihydro-4H-pyrazolo[3,4-d]pyrimidin-4-one], with 43.6 nM. Turning to `C[C@@H]1CN(c2nccc(C(F)(F)F)n2)C[C@H]1c1nc2c(cnn2C2CCCC2)c(=O)[nH]1` (racemic) [Example 4, 1-cyclopentyl-6-{(3,4-trans)-4-methyl-1-[4-(trifluoromethyl)pyrimidin-2-yl]pyrrolidin-3-yl}-1,5-dihydro-4H-pyrazolo[3,4-d]pyrimidin-4-one], the IC50 was determined as 624 nM. With `COc1ccccc1CN1C[C@@H](C)[C@H](c2nc3c(cnn3C3CCOCC3)c(=O)[nH]2)C1` [Example 103, 6-[(3S,4S)-1-(2-methoxybenzyl)-4-methylpyrrolidin-3-yl]-1-(tetrahydro-2H-pyran-4-yl)-1,5-dihydro-4H-pyrazolo[3,4-d]pyrimidin-4-one], the IC50 was 15.2 nM.

Consider `C[C@@H]1CN(Cc2ccc(C(F)(F)F)nc2)C[C@H]1c1nc2c(cnn2C2CCOCC2)c(=O)[nH]1` [Example 80, 6-[(3S,4S)-4-methyl-1-{[6-(trifluoromethyl)pyridin-3-yl]methyl}pyrrolidin-3-yl]-1-(tetrahydro-2H-pyran-4-yl)-1,5-dihydro-4H-pyrazolo[3,4-d]pyrimidin-4-one], for which the IC50 was 3.72 nM. In the case of `CC[C@@H]1CN(Cc2ccc(OC)nc2)C[C@H]1c1nc2c(cnn2C(C)C)c(=O)[nH]1` (racemic) [Example 45, 6-{(3,4-trans)-4-ethyl-1-[(6-methoxypyridin-3-yl)methyl]pyrrolidin-3-yl}-1-isopropyl-1,5-dihydro-4H-pyrazolo[3,4-d]pyrimidin-4-one], the IC50 is 38.7 nM.

Still in this test, the particulars now being: human recombinant PDE9 from SF-9 cells; 50 nM [3H]cGMP; room temperature, 30 min; additional compounds Ex. 115-228; read-out: G5678A (U):IC50.
As to `C[C@@H]1CN(Cc2ccc(F)c(F)c2)C[C@H]1c1nc2c(cnn2C2CCCC2)c(=O)[nH]1` (racemic) [Example 161, 1-cyclopentyl-6-[(3,4-trans)-1-(3,4-difluorobenzyl)-4-methylpyrrolidin-3-yl]-1,5-dihydro-4H-pyrazolo[3,4-d]pyrimidin-4-one], the IC50 was found to be 40.4 nM.

On to `COc1ccc(F)c(CN2C[C@@H](C)[C@H](c3nc4c(cnn4C4CCCC4)c(=O)[nH]3)C2)c1` (racemic) [Example 194, 1-cyclopentyl-6-[(3,4-trans)-1-(2-fluoro-5-methoxybenzyl)-4-methylpyrrolidin-3-yl]-1,5-dihydro-4H-pyrazolo[3,4-d]pyrimidin-4-one], for which the IC50 was determined as 54.7 nM. As for `C[C@@H]1CN(Cc2nc3ccccc3n2C)C[C@H]1c1nc2c(cnn2C2CCCC2)c(=O)[nH]1` (racemic) [Example 199, 1-cyclopentyl-6-{(3,4-trans)-4-methyl-1-[(1-methyl-1H-benzimidazol-2-yl)methyl]pyrrolidin-3-yl}-1,5-dihydro-4H-pyrazolo[3,4-d]pyrimidin-4-one], the IC50 amounted to 35.3 nM. As to `C[C@@H]1CN(Cc2ccc(Cl)cc2F)C[C@H]1c1nc2c(cnn2C2CCCC2)c(=O)[nH]1` (racemic) [Example 154, 6-[(3,4-trans)-1-(4-chloro-2-fluorobenzyl)-4-methylpyrrolidin-3-yl]-1-cyclopentyl-1,5-dihydro-4H-pyrazolo[3,4-d]pyrimidin-4-one], the IC50 worked out at 175 nM. On the same count and under the same terms, the result for `CCOc1ccccc1CN1C[C@@H](C)[C@H](c2nc3c(cnn3C3CCCC3)c(=O)[nH]2)C1` (racemic) [Example 139, 1-cyclopentyl-6-[(3,4-trans)-1-(2-ethoxybenzyl)-4-methylpyrrolidin-3-yl]-1,5-dihydro-4H-pyrazolo[3,4-d]pyrimidin-4-one] reads 97.5 nM; that for `C[C@@H]1CN(Cc2ccc(C(C)(C)O)nc2)C[C@H]1c1nc2c(cnn2C2CCCC2)c(=O)[nH]1` (racemic) [Example 174, 1-cyclopentyl-6-[(3,4-trans)-1-{[6-(1-hydroxy-1-methylethyl)pyridin-3-yl]methyl}-4-methylpyrrolidin-3-yl]-1,5-dihydro-4H-pyrazolo[3,4-d]pyrimidin-4-one], 42 nM; that for `C[C@@H]1CN(Cc2ccc(C(F)(F)F)cc2)C[C@H]1c1nc2c(cnn2C2CCCC2)c(=O)[nH]1` (racemic) [Example 225], 34.9 nM.

In the case of `C[C@@H]1CN(Cc2ccno2)C[C@H]1c1nc2c(cnn2C2CCCC2)c(=O)[nH]1` (racemic) [Example 172, 1-cyclopentyl-6-[(3,4-trans)-1-(isoxazol-5-ylmethyl)-4-methylpyrrolidin-3-yl]-1,5-dihydro-4H-pyrazolo[3,4-d]pyrimidin-4-one], the IC50 stood at 67 nM. `CC(C)Oc1ccc(CN2C[C@@H](C)[C@H](c3nc4c(cnn4C4CCCC4)c(=O)[nH]3)C2)cc1` (racemic) [Example 188, 1-cyclopentyl-6-[(3,4-trans)-1-(4-isopropoxybenzyl)-4-methylpyrrolidin-3-yl]-1,5-dihydro-4H-pyrazolo[3,4-d]pyrimidin-4-one]: the IC50 worked out at 72.7 nM. Turning to `Cc1ccc(CN2C[C@@H](C)[C@H](c3nc4c(cnn4C4CCCC4)c(=O)[nH]3)C2)cc1` (racemic) [Example 136, 1-cyclopentyl-6-[(3,4-trans)-4-methyl-1-(4-methylbenzyl)pyrrolidin-3-yl]-1,5-dihydro-4H-pyrazolo[3,4-d]pyrimidin-4-one], the IC50 worked out at 132 nM. For the molecule `C[C@@H]1CN(Cc2cnn3c2CCCCC3)C[C@H]1c1nc2c(cnn2C2CCCC2)c(=O)[nH]1` (racemic) [Example 214, 1-cyclopentyl-6-[(3,4-trans)-4-methyl-1-(5,6,7,8-tetrahydro-4H-pyrazolo[1,5-a]azepin-3-ylmethyl)pyrrolidin-3-yl]-1,5-dihydro-4H-pyrazolo[3,4-d]pyrimidin-4-one], the IC50 was 15.7 nM. Same read-out and setting: the result for `COc1cccc(F)c1CN1C[C@@H](C)[C@H](c2nc3c(cnn3C3CCCC3)c(=O)[nH]2)C1` (racemic) [Example 146, 1-cyclopentyl-6-[(3,4-trans)-1-(2-fluoro-6-methoxybenzyl)-4-methylpyrrolidin-3-yl]-1,5-dihydro-4H-pyrazolo[3,4-d]pyrimidin-4-one] reads 165 nM.
